Laboratory results reported in patent US20260356834A1, “ANTICONVULSIVE COMPOUNDS AND USES THEREOF” (Jazz Pharmaceuticals Research UK Limite, priority 2023, published 2026).
Several values for one entry are separate records, joined by “and”; a condition that tells them apart may be missing. Equal entries are not always repeated. Marks after values point to notes of the source that are not given here.

Key:
C57BL/6J mice [1] = assay: mouse maximal electroshock seizure threshold model using minimal sample sizes (mini-MEST)
Description: An increase in seizure threshold is indicative of an anticonvulsive effect.
The ability of a test compound to alter the stimulus intensity, expressed as current (mA), required to induce the presence of tonic hind limb extensor convulsions, is assessed in the MEST.
In the mini-MEST test, a lower n number is used.
Male C57BL/6J mice were housed in groups of 6. Mice were kept under standard conditions (12 hour light cycle; light intensity of 25-75 lux) and fed a diet of certified rodent CR 14% protein rodent diet (LabDiet® 4CR4). Mice were 8-9 weeks old at the start of the study.
Naïve mice were acclimatised to the procedure room in their home cages for up to 7 days, with food and water available ad libitum.
All animals were weighed at the beginning of the study and randomly assigned to treatment groups based on a mean distribution of body weight across groups.
The first animal within a treatment group was given a shock at the expected or estimated CC50 current. For subsequent animals, the current was lowered or raised depending on the convulsions outcome from the preceding animal in log scale intervals.
Data generated from each treatment group were used to calculate the CC50±SEM values for the treatment group.
Vehicle: (5% ethanol, 10% Solutol® (Kolliphor® HS 15), 85% saline). 1 mL of ethanol, 2 mL of Solutol™ were warmed to 60 °C, in 17 mL of 0.9% saline.
Test compounds: 5-50 mg/kg in a 1:2:17 ethanol:Solutol®:saline formulation (as used for vehicle).
RjOrl: Swiss mice = assay: mouse 6 Hz (44 mA) model of partial seizures; type: in vivo; conditions: for Mean Forelimb Clonus +/− SEM: score 0-2; for Change from vehicle 2 (forelimb clonus): vs vehicle 2 (1:2:17)
Description: The 6 Hz (44 mA) model of partial seizures, which detects anticonvulsant activity, follows that described by Brown et al. 1953.
[…] A decrease in forelimb clonus score is indicative of protection from seizure and an anticonvulsive effect.
When conducted at a 44 mA stimulus intensity in mice, the 6 Hz test can differentiate compounds with potential for the treatment of focal-onset seizures that are often resistant to current anti-epileptic drugs.
Male RjOrl: Swiss mice (Janvier Labs, 53940 Le Genest-Saint-Isle, France), 5 weeks old, weighing 27-38 g at the beginning of the experiment. Animals were acclimatized to the Test Facility for at least 5 days after delivery and randomly housed in groups of 5 to 8 in macrolon cages on wood litter with free access to food and water.
The animal house was maintained under artificial lighting (12 hours) between 7:00 and 19:00 in a controlled ambient temperature of 22±2 °C and relative humidity between 30-70%.
Before transcorneal stimulation, a drop of tetracaine solution (1%) was applied on each eye of the mouse for local anesthesia. Between 1-10 minutes later and at the designated pre-treatment (see below), the mice were administered a rectangular current (44 mA, rectangular pulse: 0.2 ms pulse width, 3 s duration, (6 Hz) via corneal electrodes connected to a constant current shock generator (Ugo Basile: type 7801).
The results for the number of seizures as reflected by forelimb clonus were recorded immediately after current administration. Forelimb clonus was scored as absent (0=no forelimb clonus), mild (1=clonus with one forelimb) and strong (2=clonus with both forelimbs). The experimenters were blinded to the treatment. […]
The administration volume was 10 mL/kg.
Due to the number of animals tested, the experiment was divided in 2 sub-experiments on 2 consecutive days with equivalent numbers of mice per group and per sub-experiment.
Data were discrete values so considered to be non-normally distributed based on validation data, therefore non-parametric tests were utilized. Quantitative data (scores) with the test substance were analyzed by comparing test compound-treated groups with the 1:2:17 vehicle control using Kruskal-Wallis test with Dunn's multiple comparisons test when the Kruskal-Wallis test was significant. Quantitative data with the reference substance were analyzed using Mann-Whitney U test as compared to saline vehicle.

C57BL/6J mice [2] = assay: mouse maximal electroshock seizure threshold model (MEST); type: in vivo
Description: Vehicle=1:2:17 ethanol:Solutol® (Kolliphor® HS 15):saline: 1 mL of ethanol and 2 mL of solutol were warmed to 60 °C and 17 mL of 0.9% saline was added slowly. […]
Vehicle=0.5% HPMC and 0.1% Tween 80:0.5% HPMC and 0.1% Tween 80 in water.

[3] = 25 mg/kg p.o., 15 min post dose
[4] = 25 mg/kg p.o., 60 min post dose
[5] = 30 mg/kg i.p., 30 min post dose
[6] = 50 mg/kg p.o., 30 min post dose
[7] = 50 mg/kg p.o., 60 min post dose
[8] = 50 mg/kg p.o., 120 min post dose
[9] = 50 mg/kg p.o., 240 min post dose
[10] = 10 mg/kg p.o., 30 min, HPMC vehicle
[11] = 10 mg/kg p.o., 30 min, vs HPMC vehicle
[12] = 50 mg/kg p.o., 30 min, HPMC vehicle
[13] = 10 mg/kg i.p., 15 min post dose
[14] = 10 mg/kg i.p., 30 min post dose
[15] = 10 mg/kg i.p., 60 min post dose

SMILES: CCCc1cc(O)c(-c2c(C)c(Cl)cn3ccnc23)c(O)c1 [Compound 4, 2-(6-Chloro-7-methylimidazo[1,2-a]pyridin-8-yl)-5-propylbenzene-1,3-diol]
- CC50 +/− SEM (C57BL/6J mice [1]; [3]): 80.9 ± 3.7 mA
- Change from vehicle (CC50) (C57BL/6J mice [1]; [3]): 216%
- CC50 +/− SEM (C57BL/6J mice [1]; 25 mg/kg p.o., 30 min post dose): 92.9 ± 1.1 mA and 53.5 ± 3.4 mA and 106.6 ± 1.1 mA
- CC50 +/− SEM (C57BL/6J mice [1]; [4]): 70.5 ± 1.1 mA
- Change from vehicle (CC50) (C57BL/6J mice [1]; [4]): 176%
- CC50 +/− SEM (C57BL/6J mice [1]; [5]): 70.5 ± 1.1 mA
- Change from vehicle (CC50) (C57BL/6J mice [1]; [5]): 140%
- CC50 +/− SEM (C57BL/6J mice [1]; [6]): 80.9 ± 1.1 mA
- Change from vehicle (CC50) (C57BL/6J mice [1]; [6]): 145%
- CC50 +/− SEM (C57BL/6J mice [1]; [7]): >131.0 mA
- Change from vehicle (CC50) (C57BL/6J mice [1]; [7]): >297%
- CC50 +/− SEM (C57BL/6J mice [1]; [8]): 61.4 ± 1.1 mA
- Change from vehicle (CC50) (C57BL/6J mice [1]; [8]): 100%
- CC50 +/− SEM (C57BL/6J mice [1]; [9]): 61.4 ± 3.7 mA
- Change from vehicle (CC50) (C57BL/6J mice [1]; [9]): 100%
- Mean Forelimb Clonus +/− SEM (RjOrl: Swiss mice; 10 mg/kg i.p., 30 min): 1.00 ± 0.11
- Change from vehicle 2 (forelimb clonus) (RjOrl: Swiss mice; 10 mg/kg i.p., 30 min): +54%
- Mean Forelimb Clonus +/− SEM (RjOrl: Swiss mice; 30 mg/kg i.p., 15 min): 0.30 ± 0.11
- Change from vehicle 2 (forelimb clonus) (RjOrl: Swiss mice; 30 mg/kg i.p., 15 min): −54%
- Mean Forelimb Clonus +/− SEM (RjOrl: Swiss mice; 60 mg/kg i.p., 30 min): 0.30 ± 0.11
- Change from vehicle 2 (forelimb clonus) (RjOrl: Swiss mice; 60 mg/kg i.p., 30 min): −54%
- Mean Forelimb Clonus +/− SEM (RjOrl: Swiss mice; 100 mg/kg i.p., 30 min): 0.11 ± 0.07
- Change from vehicle 2 (forelimb clonus) (RjOrl: Swiss mice; 100 mg/kg i.p., 30 min): −83%**
- sedation (RjOrl: Swiss mice; 60 and 100 mg/kg i.p.): ***p < 0.001; relatively low forelimb seizure scores in the 1:2:17 vehicle group may impact data interpretation; slight to moderate sedation observed with Compound 4 at 60 and 100 mg/kg.
- CC50 +/− SEM (C57BL/6J mice [2]; 5 mg/kg p.o., 15 min, HPMC vehicle): 23.5 ± 2.1 mA
- Change from vehicle (CC50) (C57BL/6J mice [2]; 5 mg/kg p.o., 15 min, vs HPMC vehicle): 11%
- CC50 +/− SEM (C57BL/6J mice [2]; [10]): 22.5 ± 0.3 mA
- Change from vehicle (CC50) (C57BL/6J mice [2]; [11]): 14%
- CC50 +/− SEM (C57BL/6J mice [2]; 25 mg/kg p.o., 15 min, HPMC vehicle): 27.5 ± 1.3 mA
- Change from vehicle (CC50) (C57BL/6J mice [2]; 25 mg/kg p.o., 15 min, vs HPMC vehicle): 32%**
- CC50 +/− SEM (C57BL/6J mice [2]; 25 mg/kg p.o., 30 min, HPMC vehicle): 60.8 ± 2.9 mA
- Change from vehicle (CC50) (C57BL/6J mice [2]; 25 mg/kg p.o., 30 min, vs HPMC vehicle): 132%***
- CC50 +/− SEM (C57BL/6J mice [2]; [12]): 92.5 ± 3.2 mA and 125.0 ± 33.4 mA
- CC50 +/− SEM (C57BL/6J mice [2]; 100 mg/kg p.o., 30 min, HPMC vehicle): 200.0 ± 3.7 mA
- Change from vehicle (CC50) (C57BL/6J mice [2]; 100 mg/kg p.o., 30 min, vs HPMC vehicle): 860%***

SMILES: CCCc1cc(O)c(-c2c(C)ccn3ccnc23)c(O)c1 [Compound 2, 2-(7-Methylimidazo[1,2-a]pyridin-8-yl)-5-propylbenzene-1,3-diol]
- CC50 +/− SEM (C57BL/6J mice [1]; [13]): 67.5 ± 2.6 mA and 65.8 ± 1.9 mA
- Change from vehicle (CC50) (C57BL/6J mice [1]; [13]): 150% and 145%
- CC50 +/− SEM (C57BL/6J mice [1]; [14]): 35.3 ± 1.1 mA
- Change from vehicle (CC50) (C57BL/6J mice [1]; [14]): 32%
- CC50 +/− SEM (C57BL/6J mice [1]; [15]): 56.0 ± 1.6 mA
- Change from vehicle (CC50) (C57BL/6J mice [1]; [15]): 109%
- CC50 +/− SEM (C57BL/6J mice [1]; [5]): >131.0 mA
- Change from vehicle (CC50) (C57BL/6J mice [1]; [5]): 414%
- Mean Forelimb Clonus +/− SEM (RjOrl: Swiss mice; 10 mg/kg i.p., 30 min): 0.7 ± 0.1
- Change from vehicle 2 (forelimb clonus) (RjOrl: Swiss mice; 10 mg/kg i.p., 30 min): −22%
- Mean Forelimb Clonus +/− SEM (RjOrl: Swiss mice; 30 mg/kg i.p., 15 min): 0.7 ± 0.1
- Change from vehicle 2 (forelimb clonus) (RjOrl: Swiss mice; 30 mg/kg i.p., 15 min): −22%
- Mean Forelimb Clonus +/− SEM (RjOrl: Swiss mice; 60 mg/kg i.p., 30 min): 0.7 ± 0.1
- Change from vehicle 2 (forelimb clonus) (RjOrl: Swiss mice; 60 mg/kg i.p., 30 min): −22%
- sedation (RjOrl: Swiss mice; 100 mg/kg i.p.): slight sedation observed
- Mean Forelimb Clonus +/− SEM (RjOrl: Swiss mice; 100 mg/kg i.p., 30 min): 0.3 ± 0.1
- Change from vehicle 2 (forelimb clonus) (RjOrl: Swiss mice; 100 mg/kg i.p., 30 min): −67%
- adverse signs (RjOrl: Swiss mice; 10, 30 or 60 mg/kg i.p.): no adverse signs were noted
- CC50 +/− SEM (C57BL/6J mice [2]; 1 mg/kg i.p., 15 min, 1:2:17 ethanol:Solutol:saline): 26.0 ± 0.4 mA
- Change from vehicle (CC50) (C57BL/6J mice [2]; 1 mg/kg i.p., 15 min, vs 1:2:17 ethanol:Solutol:saline vehicle): 11%^###
- CC50 +/− SEM (C57BL/6J mice [2]; 5 mg/kg i.p., 15 min, 1:2:17 ethanol:Solutol:saline): 29.4 ± 0.9 mA
- Change from vehicle (CC50) (C57BL/6J mice [2]; 5 mg/kg i.p., 15 min, vs 1:2:17 ethanol:Solutol:saline vehicle): 26%^###
- CC50 +/− SEM (C57BL/6J mice [2]; [10]): 27.0 ± 0.7 mA
- Change from vehicle (CC50) (C57BL/6J mice [2]; [11]): 17%***
- CC50 +/− SEM (C57BL/6J mice [2]; 30 mg/kg i.p., 30 min, 1:2:17 ethanol:Solutol:saline): 38.2 ± 1.5 mA
- Change from vehicle (CC50) (C57BL/6J mice [2]; 30 mg/kg i.p., 30 min, vs 1:2:17 ethanol:Solutol:saline vehicle): 64%^###
- CC50 +/− SEM (C57BL/6J mice [2]; [12]): 38.2 ± 0.5 mA
- Change from vehicle (CC50) (C57BL/6J mice [2]; 50 mg/kg p.o., 30 min, vs HPMC vehicle): 66%***
- CC50 +/− SEM (C57BL/6J mice [2]; 60 mg/kg i.p., 30 min, 1:2:17 ethanol:Solutol:saline): 59.5 ± 2.6 mA
- Change from vehicle (CC50) (C57BL/6J mice [2]; 60 mg/kg i.p., 30 min, vs 1:2:17 ethanol:Solutol:saline vehicle): 155%^###
